Values after ≈ are worked out from the molar mass of the structure shown.
Test system: cyprid larvae of the barnacle species Balanus amphitrite
Assay: Barnacle settlement inhibition test, enzymes in solution
Type: in vivo
Details: reference compound in solution; concentration at which 50 % settlement reduction takes place
Description: The barnacle settlement test determines settlement inhibitory activity of biocidal compounds. For this test mass reared cyprid larvae of the barnacle species Balanus amphitrite are used. Adult barnacles, kept under standardised conditions, are forced to produce naupliar larvae that are collected and grown up separately at constant temperature and a fixed light:dark period. When larvae reach the cyprid stage, which is the settling phase, they are collected and set apart prior to testing.
Test compounds are usually tested in a range of concentrations prepared directly in seawater or after pre-dissolution in a suitable solvent. Settlement tests are carried out in polystyrene multiwell plates. Wells contain either 1 mL of a test solution or 1 mL of a control solution. Plates are incubated for 24 - 48 hours under constant temperature and light:dark regime to allow settlement and metamorphosis of the cyprids.
After incubation the wells are screened and numbers of settled and non-settled larvae counted using a stereo microscope. Numbers of settled larvae are expressed as a percentage of total larvae in the well. Average % settlement is calculated in four replicates. Subsequently a settlement response curve in relation to substance concentration is drawn and an EC50 value, concentration at which 50 % settlement reduction takes place, calculated. […]

Compound: CCCCCCCCn1sc(Cl)c(Cl)c1=O [Seanine 211]
- EC50 value: 0.4 µg/mL (≈ 1.42 µM)

Source: patent publication EP1661955A1, “Antifouling coating comprising a polymer with functional groups bonded to an enzyme” (Nederlandse Organisatie voor …, priority 2004, dated 2006)
